Where a chain is given by its changes, count along the chain named.
Legend:
[1] = molecular target: T1, DEVDase activity in mouse liver protein extracts (Mus musculus, UniProt P70677); assay: DEVDase activity in mouse liver protein extracts with added inhibitors; assay type: biochemical; details: inhibitor added to extracts: 1 μM Q-VD-OPh, 0.1 μM bortezomib or 0.1 μM epoxomicin
T1 construct: Casp3 activity was assessed in liver protein extracts from mice; from tissue; host or cells: mouse liver (C57BL6/J), protein extracts
T1 sequence (P70677 29-175 limits assumed): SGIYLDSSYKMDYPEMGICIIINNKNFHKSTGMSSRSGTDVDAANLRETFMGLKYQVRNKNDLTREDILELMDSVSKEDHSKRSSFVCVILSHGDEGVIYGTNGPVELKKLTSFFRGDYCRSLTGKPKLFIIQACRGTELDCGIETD
T1 sequence (P70677 176-277 limits assumed): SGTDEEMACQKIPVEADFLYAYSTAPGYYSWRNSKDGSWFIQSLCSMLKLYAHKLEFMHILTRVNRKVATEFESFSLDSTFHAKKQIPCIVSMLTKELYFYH
Description: (§1) Activity assays for RCasp1 (Biovision, Millpitas, CA, USA) and RCasp3 (Enzo Lifesciences) used Z-Tyr-Val-Ala-Asp-7-Amino-4-trifluoromethylcoumarin (z-YVAD-AFC: Enzo LifeSciences,), and Ac-Asp-Glu-Val-Asp-7-Amino-4-trifluoromethylcouramin (Ac-DEVD-AFC: Enzo LifeSciences), respectively. To confirm that these substrates report caspase activity and not proteasomal caspase-like enzyme activity, 1 μM pan-caspase inhibitor, Q-VD-OPh (Sigma-Aldrich) or 0.1 μM proteasome inhibitor, bortezomib (Calbiochem, MA, USA) were tested on 20 nM RCasp3 or 40–60 μg of mouse liver protein extracts.
(§2) The caspase-like activity of the proteasome was measured using 10 μM Ac-Nle-Pro-Nle-Asp-AMC (Ac-nLPnLD-AMC, Enzo Lifesciences) as described for caspase activity assays except for the use of 10 mM DTT and a 7-amino-4-methylcoumarin (AMC, Sigma-Aldrich) standard curves. Mouse liver protein extracts were treated with 0.1 μM of epoxomicin (Enzo Lifesciences), bortezomib, 1 μM of Q-VD-OPh, or equal volumes of DMSO for 20 mins on ice before measuring proteasome or caspase activities.

RCasp3 = molecular target: T2, RCasp3 (Homo sapiens, UniProt P42574); assay: in vitro fluorogenic Casp3 activity assay (Ac-DEVD-AFC); assay type: biochemical; details: 20 nM RCasp3; 1 μM Q-VD-OPh or 0.1 μM bortezomib; Fig. 5c
T2 construct: Active Casp6 and Casp3 represented >99% of the purified enzyme; purchased Enzo Lifesciences
T2 sequence (P42574 29-175 limits assumed): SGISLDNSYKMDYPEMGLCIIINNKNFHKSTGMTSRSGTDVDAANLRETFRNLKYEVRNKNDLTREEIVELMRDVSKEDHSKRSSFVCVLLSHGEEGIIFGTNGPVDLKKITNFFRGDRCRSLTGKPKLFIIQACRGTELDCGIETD
T2 sequence (P42574 176-277 limits assumed): T1 sequence (P70677 176-277 limits assumed) with T3V, E5D, E6D, Q10H, S46A, L50Q, H53D, L77F, S79A

[2] = molecular target: T3, caspase-like activity of the proteasome (Mus musculus, UniProt Q60692); assay: proteasome assay (Ac-nLPnLD-AMC); assay type: biochemical; details: mouse liver protein extracts, 0.1 μM bortezomib; supplementary Fig. S2
T3 construct: nLPnLDase activity in mouse liver protein extracts; from tissue; host or cells: mouse liver protein extracts
T3 sequence (Q60692 1-238): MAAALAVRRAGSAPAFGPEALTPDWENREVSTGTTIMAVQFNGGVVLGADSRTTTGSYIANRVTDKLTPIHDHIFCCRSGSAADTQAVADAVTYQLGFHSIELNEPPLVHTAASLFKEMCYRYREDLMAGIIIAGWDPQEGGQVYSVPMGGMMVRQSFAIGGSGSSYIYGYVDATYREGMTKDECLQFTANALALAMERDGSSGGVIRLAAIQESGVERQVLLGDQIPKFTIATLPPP
Description: as §2, with “activities. […]” for “activities.”
equated at 100% activity of the enzyme. Activity assays for recombinant Casp3 was done similarly to recombinant Casp6, except the substrate used was Ac-Asp-Glu-Val-Asp-7-Amino-4-trifluoromethylcouramin (Ac-DEVD-AFC: Enzo Life Sciences, NY, USA).
Proteasome assay: The caspase-like activity of the proteasome was measured using the substrate Ac-Nle-Pro-Nle-Asp-AMC (Enzo LifeSciences, NY, USA) at a final concentration of 10 µM in Stennicke’s buffer in the presence of 10 mM DTT. […]
Statistical Analysis: For Caspase-3 activity assays, data represent the mean ± SEM of 3 livers from 3 animals and was analyzed using a one-way ANOVA with Dunnett’s post hoc test (*** p < 0.001 in DMSO, and ### p < 0.001 in bortezomib) comparing all samples to LPS/GALN-treated mice in the absence of methylene blue, while proteasome assays were analyzed using […]

HCT116 cells = assay: cell viability (microscopy and MTT) in HCT116 cells; assay type: cell-based, human; details: 2 hours; for concentration at which cells retained morphology and confluence comparable to PBS-treated controls: HCT116, phase contrast microscopy
Description: (§3) HCT116 cells, plated at a density of 1 × 10^5 cells/well and human neurons, plated at a density of 6 × 10^6 cells/well on poly-L-lysine were treated with PBS or phenothiazines for 2 hours. The media was replaced before acquiring images with the Nikon Eclipse Ti microscope and the NIS-Elements (Version 3.10) software. MTT assays: Cells were plated in 96-well plates at 1 × 10^4 or 1 × 10^5 cells per well for 24 hours before treatments with phenothiazines or PBS. After 2 hours, fresh media containing […] MTT (3-(4,5-dimethylthiazol-2-yl)-2,5-diphenyltetrazolium bromide) (Sigma-Aldrich) was added and the cells were incubated for 4 hours at 37 °C in 5% CO2. The media was removed, formazan crystals were dissolved in DMSO, and the absorbance was measured at 560 nm and 670 nm using the BioTek Synergy H4 plate reader.

RCasp6 [3] = molecular target: T4, RCasp6 (Homo sapiens, UniProt P55212); assay: inhibitor kinetic studies (Michaelis-Menten / Lineweaver-Burk) on RCasp6; assay type: biochemical; details: for mode of inhibition: Lineweaver Burk plot, Km increasing, Vmax the same; for Ki: competitive inhibition model, nonlinear regression, Ac-VEID-AFC substrate, 10 nM RCasp6
T4 construct: The zymogen is cleaved at three distinct sites to remove the prodomain and linker regions in order to obtain an active enzyme; His tag (C); made in house; host or cells: E. coli BL21 (DE3)pLysS
T4 sequence (P55212 24-179 limits assumed): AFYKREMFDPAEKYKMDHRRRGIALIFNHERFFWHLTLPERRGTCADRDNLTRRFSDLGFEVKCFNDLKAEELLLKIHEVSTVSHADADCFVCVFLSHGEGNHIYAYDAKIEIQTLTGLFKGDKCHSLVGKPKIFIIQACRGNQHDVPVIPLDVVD
T4 sequence (P55212 194-293 limits assumed): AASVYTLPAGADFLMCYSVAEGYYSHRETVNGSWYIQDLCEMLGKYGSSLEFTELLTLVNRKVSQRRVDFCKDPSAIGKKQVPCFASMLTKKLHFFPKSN

Casp6 [4] = molecular target: T5, Casp6 (Homo sapiens, UniProt P55212); assay: Casp6 activity in Casp6p20p10-transfected HCT116 cells; assay type: cell-based; set-up: for active Casp6p20 subunit (p20), full length Casp6 lacking its pro-domain; Casp6p20p10 (p20p10); expressed in transfected cells; host or cells: HCT116 human colon carcinoma cells; details: transfected HCT116, 2 hrs; 100 μM and 1 mM methylene blue, 50 μM azure A, 10 μM and 100 μM azure B
T5 sequence (P55212 24-179 limits assumed): T4 sequence (P55212 24-179 limits assumed)
T5 sequence (P55212 194-293 limits assumed): T4 sequence (P55212 194-293 limits assumed)
Description: as §1
Human colon carcinoma (HCT116) cells, cultured as recommended (ATCC: Manassas, VA, USA), were transfected with 1 μg pCep4βCasp6p20p10 and 8 μg polyethyleneimine (Polysciences Inc., Warrington, PA, USA), and grown 24 hrs before treatment with PBS and phenothiazines for 2 hours. Human primary neurons were cultured from fetal brain cortical areas obtained under ethical guidelines and approved by the McGill University’s institutional review board as previously described. Human primary neurons plated in poly-L-lysine -coated 6-well plates at a density of 3 × 10^6 cells/mL were serum-deprived for 2 hours in the presence of phenothiazines or an equivalent volume of PBS. Proteins were harvested in cell lysis buffer (CLB; 50mM HEPES, 0.1% CHAPS, 0.1mM EDTA).
(§4) The 10630 (1:10,000) and GN60622 (1:10,000) neoepitope antibodies against the p20 subunit of active Casp6[16] and Tub∆Casp6[23], respectively, were generated in our laboratory. The β-actin clone AC-15 (1:5000, Sigma-Aldrich), Casp6 p10 clone B93-4 (1:250, BD Canada, Mississauga, ON, CA), Casp3, and full-length α-tubulin (1:1000, Cell Signaling Technology Inc., Danvers, MA, USA) antibodies were diluted in 5% non-fat dry milk in Tris-buffered saline containing 0.1% Tween-20 (Sigma-Aldrich). […] Secondary anti-mouse conjugated to alkaline phosphatase (Jackson Immunoresearch Laboratories Inc., West Grove, PA) was developed with nitro-blue tetrazolium (ThermoSci) and 5-bromo-4-chloro-3′-indolyphosphate (ThermoSci).

RCasp6 [5] = molecular target: T4, RCasp6; assay: in vitro fluorogenic Casp6 activity assay (Ac-VEID-AFC); assay type: biochemical; details: 10 μM DTT; Fig. 1c
[6] = molecular target: T6, catalytic Cys163 of Casp6 (Homo sapiens, UniProt P55212); assay: LC/MS/MS analysis of Casp6 Cys163 oxidation; details: RCasp6 treated with 2 mM compound, 45 min, 37 °C
T6 construct: The zymogen is cleaved at three distinct sites to remove the prodomain and linker regions in order to obtain an active enzyme; His tag (C); made in house; host or cells: E. coli BL21 (DE3)pLysS
T6 sequence (P55212 24-179 limits assumed): T4 sequence (P55212 24-179 limits assumed)
T6 sequence (P55212 194-293 limits assumed): T4 sequence (P55212 194-293 limits assumed)

human primary neurons = assay: cell viability (microscopy) in human primary neurons; assay type: cell-based; details: phase contrast microscopy, 2 hours
Description: as §3

Casp6 [7] = molecular target: T5, Casp6; assay: Casp6 activity in serum-deprived human primary neuron cultures; assay type: cell-based; set-up: endogenous in cells; host or cells: human primary neurons from fetal brain cortex; details: serum-deprived neurons, 2 hrs, 100 μM methylene blue, 50 μM azure A, 10 μM azure B; for Tub∆Casp6/Tub levels: vs PBS-treated serum-deprived neurons
RCasp6 [8] = molecular target: T4, RCasp6; assay: in vitro tubulin cleavage assay with RCasp6; assay type: biochemical; details: 20 nM RCasp6, 10 μM DTT, 10 hours, western blot densitometry; read-out: IC50, cleavage of tubulin by RCasp6 (Tub∆Casp6 relative to total tubulin)
Description: Phenothiazines were mixed with 20 nM RCasp6 or RCasp3, 10 μM DTT, and 7.5 nM BSA in SB and 36 μg HCT116 protein extracts added before incubation at 37 °C for 10 hours, western blotting, and densitometry for tubulin-cleaved by Casp6 (Tub∆Casp6) and total tubulin as described in the western blot section. The IC50 was determined by a non-linear regression fit for log inhibitor vs caspase activity with a Hill slope of −1 using GraphPad Prism 5.0.
as §4

Row | RCasp3 activity in vitro (RCasp3) | SMILES | DEVDase activity in LPS/GALN-treated mouse liver protein extracts [1] | concentration at which cells retained morphology and confluence comparable to PBS-treated controls (HCT116 cells) [μM] | mode of inhibition (RCasp6 [3]) | Ki (RCasp6 [3]) [µM] | Casp6 activity on the Ac-VEID-AFC peptide substrate (Casp6 [4]) | inhibition of Casp6 activity (RCasp6 [5]) | concentration above which cell body size and axonal fragmentation increased (human primary neurons) | VEIDase activity (Casp6 [7]) | Tub∆Casp6/Tub levels (Casp6 [7]) | IC50 (RCasp6 [8]) [µM] | other results
1 | – | CC[C@H](C)[C@H](NC(=O)[C@H]([C@@H](C)CC)N(C)C(C)=O)C(=O)N[C@H](C(=O)N[C@@H](CC(C)C)C(=O)[C@@]1(C)CO1)[C@@H](C)O [epoxomicin] | nor was Casp3 DEVDase activity affected | – | – | – | – | – | – | – | – | – | –
2 | did not inhibit | CC(C)C[C@H](NC(=O)[C@H](Cc1ccccc1)NC(=O)c1cnccn1)B(O)O [bortezomib] | – | – | – | – | – | – | – | – | – | – | nLPnLDase proteasomal activity [2]: significantly inhibited
3 | – | CNc1ccc2nc3ccc(N(C)C)cc3[s+]c2c1 [azure B, dimethyl-[7-(methylamino)phenothiazin-3-ylidene]azanium;chloride] | – | 100 | competitive | 7.89 | significantly inhibited | inhibited Casp6 activity in a dose dependent manner | > 10 µM | significantly inhibited | significantly decreased | 34.4 | concentration up to which well tolerated (HCT116 cells; HCT116, MTT assay): up to 100 μM; concentration at which reduction in Casp6 activity was observed (RCasp6 [5]): 100 pM; sequenced peptides containing oxidized Cys163 [6]: 7.7%
4 | – | CN(C)c1ccc2nc3ccc(N)cc3[s+]c2c1 [azure A, (7-aminophenothiazin-3-ylidene)-dimethylazanium;chloride] | – | 50 | competitive | 0.42 | trend towards inhibition but it did not reach statistical significance | inhibited Casp6 activity in a dose dependent manner | above 50 μM | significantly inhibited | significantly decreased | 0.5 | concentration above which toxicity was shown (HCT116 cells; HCT116, MTT assay): above 50 μM; concentration necessary for a significant inhibition of Casp6 activity (RCasp6 [5]): 10 nM
5 | abrogated | CC(C)[C@H](NC(=O)c1ccc2ccccc2n1)C(=O)N[C@@H](CC(=O)O)C(=O)COc1c(F)cccc1F [Q-VD-OPh] | abrogated | – | – | – | – | – | – | – | – | – | –

From article PMC4585840 (Scientific Reports, 2015)
